# In patent US20130079345A1, “[…] ACTIVE DISUBSTITUTED TRIAZINE DERIVATIVES” (BAYER INTELLECTUAL PROPERTY GMBH, priority 2010, published 2013):
# Assays:
# [1] = molecular target: T1, CDK9/Cyclin T1 (Homo sapiens, UniProt P50750); assay: LanthaScreen Eu Kinase Binding Assay, CDK9/Cyclin T1; conditions: tracer 236, read-out: Affinity (Kd) CDK9/Cyclin T1
# T1 construct: purchased Invitrogen
# Method: (§1) This protocol describes how the LanthaScreen Eu Kinase Binding Assay was performed to determine dissociation constants (Kd) of compounds of general formula (I) and CDK/Cyclin complexes. The principle behind this assay is based upon the binding and displacement of an Alexa Fluor 647-labeled tracer, which binds to the active site of kinases. Binding of the tracer to the kinase is detected using a Eu-labeled antibody. Simultaneous binding of both the tracer and antibody to the kinase gives rise to a FRET-signal. Binding of an inhibitor to the kinase competes for binding with the tracer, resulting in a loss of FRET.
# (§2) The compounds of general formula (I) summarized in Table 1 were diluted from a 10 mM DMSO stock solution 1:10 in a total volume of 15 μL DMSO. This compound predilution was then serial diluted 1:3 over 8 steps in DMSO and briefly spun down. Each compound solution was now diluted 1:33.33 in kinase buffer (HEPES: 20 mM, pH: 8.0; MgCl2: 10 mM; DTT: 1 mM; Brij-35: 0.01%), mixed thoroughly and spun down. For every sample, 5 μL of the diluted compound were mixed with 5 μL tracer working solution (e.g. 60 nM tracer 236 in kinase buffer for CDK2/Cyclin A) and 5 μL CDK/Cyclin/Anti-GST-AB-working solution (e.g. 15 nM CDK2/Cyclin A, 1:250 dilution of Anti-GST-AB in kinase buffer) in a well of a small volume 384 well plate (Corning Incorporated, Corning, N.Y., USA; order no. 3673). […] For positive controls, in each well 5 μL of DMSO working solution (3% DMSO diluted in kinase buffer) was mixed with 5 μL CDK/Cyclin/Anti-GST-AB-working solution: (e.g. 15 nM CDK2/Cyclin A, 1:250 dilution of Anti-GST-AB in kinase buffer) and 5 μL Tracer working solution (e.g. 60 nM Tracer 236 in kinase buffer for CDK2/Cyclin A). Positive and negative controls were calculated from at least 8 different sample wells. The 384 well plates were mixed in a Teleshaker plate mixer (Beckman Coulter, Brea, Calif., USA) at 2000 rpm for 40 sec, and incubated for 1 h at room temperature before reading. The FRET signal was measured at 340 nm excitation, 665 nm and 615 nm emission (for the kinase tracer and LanthaScreen Eu-AB, respectively) with an Envision spectrophotometer (Perkin Elmer, Waltham, Mass., USA) with 50 μs delay and 300 μs integration time. Kd values were determined from the sigmoidal dose response curves with the software Quattro Workflow (Quattro GmbH, Munich, Germany).
# [2] = molecular target: T2, CDK7/CyclinH/Mat1 (Homo sapiens, UniProt P50613); assay: LanthaScreen Eu Kinase Binding Assay, CDK7; conditions: tracer 236, read-out: Affinity (Kd) CDK7
# T2 construct: purchased Carna Biosciences
# Method: as §1, §2
# [3] = molecular target: T3, CDK8/Cyclin C (Homo sapiens, UniProt P49336); assay: LanthaScreen Eu Kinase Binding Assay, CDK8; conditions: tracer 236, read-out: Affinity (Kd) CDK8
# T3 construct: purchased Invitrogen
# Method: as §1, §2
# [4] = molecular target: T4, CDK9/Cyclin K (Homo sapiens, UniProt P50750); assay: LanthaScreen Eu Kinase Binding Assay, CDK9/Cyclin K; conditions: tracer 236, read-out: Affinity (Kd) CDK9/Cyclin K
# T4 construct: purchased Invitrogen
# Method: as §1, §2
# [5] = molecular target: T5, CDK2/CyclinA (Homo sapiens, UniProt P24941); assay: LanthaScreen Eu Kinase Binding Assay, CDK2; conditions: tracer 236, read-out: Affinity (Kd) CDK2
# T5 construct: purchased Proqinase
# Method: as §1, §2
# [6] = tested on: NF-kappaB reporter gene activation in HEK293 cells; assay: NF-kappaB reporter assay; type: cell-based; conditions: Homo sapiens, 20 ng/ml TNF alpha, 5 h
# Method: Cells were maintained in RPMI cell culture medium+glutamine (PAN Biotech GmbH, Aidenbach, Germany) supplemented with 10% fetal calf serum (PAA Laboratories GmbH, Pasching, Austria) and grown at 37° C., 5% CO2. HEK293 cells grown to 50% confluence were transfected with the Amaxa® Cell Line Nucleofector® Kit V (Lonza, Basel, Switzerland, catalog #VCA-1003). Transfections were performed according to manufacturer's optimized protocol for transfection of HEK293 cells. In brief, 2×10^5 cells were transfected with 5 μg highly purified plasmid DNA. Cells were transfected with a NF-kappa B reporter plasmid (pNFkBluc), pTALluc for control, or pMAXGFP for transfection control. After transfection, cells were taken up in 500 μL RPMI1640 cell culture medium, incubated for 1 h at 37° C., and 4.5 ml DMEM without phenol red were added per transfection. Transfected cells were seeded in 96 well plates (Greiner Bio-One, Frickenhausen, Germany, catalog #655098) with 100 μL cell suspension per well and incubated for 48 h. To each well, 100 μL DMEM with 2× concentrated compound diluted from 10 mM DMSO stocks, or 100 μL DMEM with 0.4% DMSO for control wells, was added. The compounds of general formula (I) summarized in Table 6 were used in this assay. Cells were stimulated with 20 ng/ml TNF alpha, and plates were incubated for 5 h at 37° C./5% CO2. Cell culture supernatants were removed to leave 100 μl medium per well, followed by addition of 100 μl Bright Glo luciferase assay reagent (Promega, Madison, Wis., USA, catalog #E2620), and shaking for 5 minutes in the dark. Luminescence was measured with a Victor Photospectrometer (Perkin Elmer, Waltham, Mass., USA). […], values were calculated with the software Excel Fit (IDBS, Guildford, UK) from 2-fold dilution series comprising at least 10 concentrations in duplicates.
# [7] = tested on: RNA Polymerase II Ser2 phosphorylation (cellular CDK9 activity) in HCT-116 cells; assay: RNA-Polymerase II Ser2 cellular phosphorylation assay; type: cell-based; conditions: Homo sapiens, normalized with tubulin
# Method: HCT-116 cells (DSMZ, Braunschweig, Germany) were maintained in Mc Coy's cell culture medium+glutamine (PAN Biotech GmbH, Aidenbach, Germany) supplemented with 10% fetal calf serum (PAA Laboratories GmbH, Pasching, Austria) and grown at 37° C., 5% CO2. For the cellular phosphorylation assay, cells were seeded with 2×10^5 cells/well/1 ml in 24-well plates (Greiner Bio—One, Frickenhausen, Germany; catalog #662160). The compounds of general formula (I) summarized in Table 6 were diluted from a 10 mM DMSO stock solution 1:10 in a total volume of 15 μL DMSO. After overnight incubation at 37° C./5% CO2, 1.5 μL of a compound diluted in DMSO was added to each sample well. Wells with cells and 0.15% DMSO in culture medium were used as positive controls, wells without cells and 0.15% DMSO in culture medium were used as negative controls. The cells were incubated with the compounds for 72 h at 37° C./5% CO2. Before lysis, cells were washed with phosphate buffered saline. Phosphorylation of RNA Polymerase II Ser2 and tubulin levels for normalization were analyzed afterwards with the Multi-Array technology (Meso Scale Discovery, Gaithersburg, Md., USA), a combination of antibody coupled electrochemiluminescence detection and patterned arrays. Manufacturer's instructions were followed and all solutions were purchased from Meso Scale Discovery. In brief, cells were lysed by 30 min incubation in CLB1 lysis buffer (Zeptosens, Witterswil, Switzerland; 60 μL per well), and supernatants were cleared by centrifugation. For analysis of RNA Polymerase II Ser2-phosphorylation, lysates were diluted 1:50 with Meso Scale Lysis Buffer supplemented with phosphatase- and protease-inhibitors, and 25 µL of each sample was pipetted in a well of a MSD Multi-Array 96-Well Plate Sector® Imager High Bind Plate (Meso Scale Discovery; catalog #L15XB-3/L11XB-3), and incubated for 2 h at room temperature. […] Meso Scale Tris Wash Buffer supplemented with 3% w/v Meso Scale Blocker A were added per well, then plates were sealed and incubated 1 h with vigorous shaking. Plates were washed with 1× Tris Wash Buffer (10× Meso Scale Wash Buffer diluted 1:10 in destilled water), 25 μL of antibody solution was added (CTD7 3E10 antibody from Helmholtz Zentrum Munich, Germany, diluted 1:100 in Meso Scale Tris Wash Buffer supplemented with 1% w/v Meso Scale Blocker A), and plates were washed three times in 1× Tris Wash Buffer. 25 μL of MSD® SULFO-TAG™ Goat-Anti-Rat-Antibody (Meso Scale Discovery, catalog #R^32AH-1, diluted 1:125 in Tris Wash Buffer with 1% (w/v) blocker A) were added per well, plates were sealed and incubated with vigorous shaking for 1 h at room temperature. Finally, plates were washed three times with Tris Wash Buffer, 150 μl 2× Read Buffer (Meso Scale Discovery) were added per well and plates were analyzed immediately in a Sector Imager from Meso Scale Discovery. For determination of tubulin protein levels, samples were analyzed with the protocol for RNA Polymerase II Ser2-phosphorylation, with an anti-tubulin antibody (rabbit; BIODESIGN International, catalog #T59840R, diluted 1:100) and a MSD® SULFO-TAG™ […] (Meso Scale Discovery, catalog #R^32AH-1, diluted 1:125). RNA Polymerase II Ser2 phosphorylation was normalized with tubulin protein levels, and EC50 values were calculated with the software XLFit (IDBS, Guildford, UK) from 2-fold dilution series comprising 6 concentrations in duplicates.
# [8] = molecular target: T6, CDK9 (Homo sapiens, UniProt P50750); assay: Lance Ultra KinaSelect Assay, CDK9; type: biochemical; conditions: read-out: Inhibition (IC50) CDK9
# T6 construct: purchased Invitrogen
# Method: (§3) This protocol describes how the Lance Ultra KinaSelect Assay was performed to determine half maximal inhibitory concentration (IC50) of compounds of general formula (I) and CDK/Cyclin complexes. The principle behind this enzymatic assay is based upon the phosphorylation of the ULight-Peptide Substrat. It is detected by using a specific EU-labeled anti-phospho peptide antibody. The binding of the Eu-labeled anti-phospho peptide antibody to the phosphorylated U Light labeled peptide gives rise to a FRET-signal. Binding of an inhibitor to the kinase prevents phosphorylation of the ULight-MBP Substrat, resulting in a loss of FRET.
# (§4) The compounds of general formula (I) summarized in Table 5 were diluted from a 10 mM DMSO stock solution 1:10 in a total volume of 15 μL DMSO. This compound predilution was then serial diluted 1:3 over 8 steps in DMSO and briefly spun down. Each compound solution was now diluted 1:20 in Enzymatic Buffer (HEPES: 50 mM, pH: 7.5; MgCl2: 10 mM; EGTA: 1 mM; DTT: 2 mM; Tween-20: 0.01%), mixed thoroughly and spun down. For every sample, 2 μL of the diluted compound were mixed with 6 μL CDK/Cyclin/Substrat solution and […] in a well of a small volume 384 well plate (Corning Incorporated, Corning, N.Y., USA; order no. 3673). […] For positive controls, in each well 2 μL of DMSO solution (1% final DMSO assay concentration) was mixed with 6 μL CDK/Cyclin/Substrat (appropriate final concentration see Table 3) and 2 μL Tracer ATP solution (appropriate final concentration see Table 3). Positive and negative controls were calculated from at least 8 different sample wells. The 384 well plates were mixed in a Teleshaker plate mixer (Beckman Coulter, Brea, Calif., USA) at 2000 rpm for 40 sec, and incubated for 1 h at room temperature. Before reading, 10 μL detection buffer (Lance Detection Buffer 1×; EDTA: […]; Eu-Anti-P-MBP: see Table 3) was added. The FRET signal was measured at 340 nm excitation, 665 nm and 615 nm emission (for the kinase tracer and LanthaScreen Eu-AB, respectively) with an Envision spectrophotometer (Perkin Elmer, Waltham, Mass., USA) with 50 μs delay and 300 μs integration time. IC50 values were determined from the sigmoidal dose response curves with the software Quattro Workflow (Quattro GmbH, Munich, Germany).
# [9] = molecular target: T2, CDK7/CyclinH/Mat1; assay: Lance Ultra KinaSelect Assay, CDK7; type: biochemical; conditions: ATP 25 μM, read-out: Inhibition (IC50) CDK7
# Method: as §3, §4
# [10] = molecular target: T5, CDK2/CyclinA; assay: Lance Ultra KinaSelect Assay, CDK2; type: biochemical; conditions: ATP 3 μM, read-out: Inhibition (IC50) CDK2
# Method: as §3, §4
# T4 sequence (P50750 whole entry): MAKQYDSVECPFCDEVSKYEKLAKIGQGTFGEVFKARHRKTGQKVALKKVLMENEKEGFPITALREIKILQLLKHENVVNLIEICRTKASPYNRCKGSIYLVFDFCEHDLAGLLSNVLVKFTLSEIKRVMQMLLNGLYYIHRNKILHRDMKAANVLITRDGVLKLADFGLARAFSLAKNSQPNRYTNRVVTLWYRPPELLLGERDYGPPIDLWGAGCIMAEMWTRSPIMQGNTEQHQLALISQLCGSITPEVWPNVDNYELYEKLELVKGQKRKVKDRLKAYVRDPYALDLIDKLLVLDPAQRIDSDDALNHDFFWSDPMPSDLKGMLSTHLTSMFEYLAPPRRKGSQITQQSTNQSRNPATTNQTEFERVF
# T4 sequence (O75909 whole entry partner): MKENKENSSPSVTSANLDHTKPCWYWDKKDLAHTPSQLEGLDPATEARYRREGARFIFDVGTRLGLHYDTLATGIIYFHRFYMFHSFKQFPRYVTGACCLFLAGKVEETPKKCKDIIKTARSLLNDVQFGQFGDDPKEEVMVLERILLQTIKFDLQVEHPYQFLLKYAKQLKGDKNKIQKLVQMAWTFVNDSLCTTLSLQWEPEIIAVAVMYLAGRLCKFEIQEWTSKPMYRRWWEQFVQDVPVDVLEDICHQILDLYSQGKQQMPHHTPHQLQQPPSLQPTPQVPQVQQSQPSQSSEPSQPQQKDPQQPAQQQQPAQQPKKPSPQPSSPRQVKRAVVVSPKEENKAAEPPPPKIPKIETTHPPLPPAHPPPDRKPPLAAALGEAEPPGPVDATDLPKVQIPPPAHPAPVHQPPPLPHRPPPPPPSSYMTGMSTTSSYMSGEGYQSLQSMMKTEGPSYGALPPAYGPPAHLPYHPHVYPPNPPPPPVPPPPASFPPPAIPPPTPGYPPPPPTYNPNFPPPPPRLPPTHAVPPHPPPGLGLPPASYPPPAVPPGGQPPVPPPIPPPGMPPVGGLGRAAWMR
# T1 sequence (P50750 whole entry): as the sequence (P50750 whole entry) above
# T1 sequence (O60563 whole entry partner): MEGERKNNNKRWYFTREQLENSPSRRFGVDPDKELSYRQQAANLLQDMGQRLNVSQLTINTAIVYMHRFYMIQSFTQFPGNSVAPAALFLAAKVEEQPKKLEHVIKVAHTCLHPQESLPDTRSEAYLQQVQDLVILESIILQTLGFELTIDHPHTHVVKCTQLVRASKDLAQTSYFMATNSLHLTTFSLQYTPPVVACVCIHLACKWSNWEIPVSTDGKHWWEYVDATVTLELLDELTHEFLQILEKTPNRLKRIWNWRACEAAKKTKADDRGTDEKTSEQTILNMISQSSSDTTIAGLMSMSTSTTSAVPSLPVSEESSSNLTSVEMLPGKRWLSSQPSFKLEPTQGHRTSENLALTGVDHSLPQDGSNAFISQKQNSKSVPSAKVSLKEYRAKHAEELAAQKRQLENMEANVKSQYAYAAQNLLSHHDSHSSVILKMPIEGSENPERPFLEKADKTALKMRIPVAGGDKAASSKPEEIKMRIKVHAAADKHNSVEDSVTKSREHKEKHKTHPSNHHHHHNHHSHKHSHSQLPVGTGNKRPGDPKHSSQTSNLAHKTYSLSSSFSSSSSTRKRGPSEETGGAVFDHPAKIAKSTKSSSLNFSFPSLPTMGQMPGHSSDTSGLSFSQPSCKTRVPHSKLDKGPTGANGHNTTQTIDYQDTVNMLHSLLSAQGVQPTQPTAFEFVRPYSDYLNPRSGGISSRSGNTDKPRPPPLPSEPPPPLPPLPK
# T2 sequence (P50613 whole entry): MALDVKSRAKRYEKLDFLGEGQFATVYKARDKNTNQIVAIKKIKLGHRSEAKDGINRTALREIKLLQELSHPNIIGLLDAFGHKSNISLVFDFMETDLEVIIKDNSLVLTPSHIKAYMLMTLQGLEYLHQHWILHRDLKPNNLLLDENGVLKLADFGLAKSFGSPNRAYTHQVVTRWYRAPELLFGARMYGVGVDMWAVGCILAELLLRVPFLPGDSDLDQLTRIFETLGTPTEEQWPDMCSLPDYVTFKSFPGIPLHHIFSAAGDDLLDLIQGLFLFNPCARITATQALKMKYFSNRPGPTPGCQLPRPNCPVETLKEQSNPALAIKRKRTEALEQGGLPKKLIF
# T2 sequence (P51946 whole entry partner): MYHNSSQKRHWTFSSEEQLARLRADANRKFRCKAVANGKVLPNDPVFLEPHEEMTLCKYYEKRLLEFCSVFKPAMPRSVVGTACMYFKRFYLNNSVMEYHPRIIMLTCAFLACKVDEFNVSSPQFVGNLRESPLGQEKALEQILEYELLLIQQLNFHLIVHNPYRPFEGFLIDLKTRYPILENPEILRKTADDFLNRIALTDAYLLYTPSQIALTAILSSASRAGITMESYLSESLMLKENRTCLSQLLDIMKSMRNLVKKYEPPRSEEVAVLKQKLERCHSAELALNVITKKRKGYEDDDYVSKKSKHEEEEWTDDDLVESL
# T2 sequence (P51948 whole entry partner): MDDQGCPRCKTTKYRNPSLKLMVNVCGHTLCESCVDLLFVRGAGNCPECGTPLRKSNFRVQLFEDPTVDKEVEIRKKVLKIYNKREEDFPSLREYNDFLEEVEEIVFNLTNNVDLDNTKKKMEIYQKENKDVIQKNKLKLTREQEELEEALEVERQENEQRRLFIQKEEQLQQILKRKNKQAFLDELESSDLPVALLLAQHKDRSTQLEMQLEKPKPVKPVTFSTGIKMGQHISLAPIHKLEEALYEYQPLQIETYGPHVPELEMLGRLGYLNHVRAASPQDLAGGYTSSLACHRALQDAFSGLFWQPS
# T3 sequence (P49336 whole entry): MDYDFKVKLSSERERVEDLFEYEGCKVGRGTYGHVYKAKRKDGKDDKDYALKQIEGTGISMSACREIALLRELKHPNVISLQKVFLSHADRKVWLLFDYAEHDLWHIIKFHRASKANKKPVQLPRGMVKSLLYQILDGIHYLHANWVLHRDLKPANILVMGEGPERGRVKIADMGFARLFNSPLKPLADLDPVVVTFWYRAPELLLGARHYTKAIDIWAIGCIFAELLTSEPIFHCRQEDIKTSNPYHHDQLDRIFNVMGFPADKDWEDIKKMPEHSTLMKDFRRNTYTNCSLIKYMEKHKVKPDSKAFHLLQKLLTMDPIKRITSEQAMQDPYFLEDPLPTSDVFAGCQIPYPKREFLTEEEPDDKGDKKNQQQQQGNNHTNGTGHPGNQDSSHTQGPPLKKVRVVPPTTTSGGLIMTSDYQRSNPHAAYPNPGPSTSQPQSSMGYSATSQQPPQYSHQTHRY
# T3 sequence (P24863 whole entry partner): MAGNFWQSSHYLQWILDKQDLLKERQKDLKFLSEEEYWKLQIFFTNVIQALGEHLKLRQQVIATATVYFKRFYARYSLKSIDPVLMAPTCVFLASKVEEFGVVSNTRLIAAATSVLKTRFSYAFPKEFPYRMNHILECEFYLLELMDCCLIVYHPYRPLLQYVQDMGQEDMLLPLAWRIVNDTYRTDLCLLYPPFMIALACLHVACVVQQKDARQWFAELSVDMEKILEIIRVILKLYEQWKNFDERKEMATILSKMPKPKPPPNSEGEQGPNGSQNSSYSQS
# T6 sequence (P50750 whole entry): as the sequence (P50750 whole entry) above
Structure (SMILES),Kd [1] [nM],Kd [2] [nM],Kd [3] [nM],Kd [4] [nM],Kd [5] [nM],IC50 [8] [nM],IC50 [9] [nM],IC50 [10] [nM],IC50 [6] [nM],IC50 [7] [nM]
"COc1ccc(Cl)cc1-c1ncnc(Nc2cccc(CS(N)(=O)=O)c2)n1 [Compound B7, 3-[(4-(5-Chloro-2-methoxyphenyl)-1,3,5-triazin-2-yl)amino]benzenemethanesulfonamide]",55,> 10000,> 10000,101,,,,,,
"NS(=O)(=O)Cc1cccc(Nc2ncnc(-c3cccc4c3OCO4)n2)c1 [Compound B15, 3-[(4-(1,3-Benzodioxol-4-yl)-1,3,5-triazin-2-yl)amino]benzenemethanesulfonamide]",141,> 10000,> 10000,2460,6460,,,,,
"Nc1ccc(-c2ncnc(Nc3cccc(CS(N)(=O)=O)c3)n2)cn1 [Compound B23, 3-[(4-(6-Aminopyridin-3-yl)-1,3,5-triazin-2-yl)amino]benzenemethanesulfonamide]",99,> 10000,,26.2,,,,,> 30000,> 30000
"COc1ccncc1-c1ncnc(Nc2cccc(CS(N)(=O)=O)c2)n1 [Compound B18, 3-[(4-(4-Methoxypyridin-3-yl)-1,3,5-triazin-2-yl)amino]benzenemethanesulfonamide]",104,> 10000,1760,302,,,,,,

# Second part, led by results:
Kd [1] [nM],Kd [2] [nM],Kd [3] [nM],Kd [4] [nM],Kd [5] [nM],IC50 [8] [nM],IC50 [9] [nM],IC50 [10] [nM],Structure (SMILES),IC50 [6] [nM],IC50 [7] [nM]
43.7,> 10000,,,237,190,> 10000,259,"COc1ccccc1-c1ncnc(Nc2ccc(CS(N)(=O)=O)cc2)n1 [Compound T1, 4-[(4-(2-Methoxyphenyl)-1,3,5-triazin-2-yl)amino]benzenemethanesulfonamide]",,
6.9,> 10000,,,851,24.7,> 10000,1770,"COc1ccccc1-c1ncnc(Nc2cccc(S(C)(=O)=O)c2)n1 [Compound S1, 4-(2-Methoxyphenyl)-N-(3-(methylsulfonyl)phenyl)-1,3,5-triazin-2-amine]",,
